This is an account of results in ChEMBL document CHEMBL1131684, “Preparation of amino acid conjugates of betulinic acid with activity against human melanoma” (Bioorg Med Chem Lett, 1999).

The test system of one data set is SK-MEL-2. The data set is described as follows: In vitro cytotoxicity (antitumor activity) against human melanoma (MEL-2) cell lines. The format is functional. The conditions noted are these: read-out: ED50 (the source's name).
Data set [1] can be described thus: Water solubility of the compound. The format is ADME. To be noted: buffer.
In a further data set the test system is KB. The data set is described as follows: In vitro cytotoxicity (antitumor activity) against human epidermoid carcinoma of mouth cell line (KB). The conditions noted are these: read-out: ED50 (the source's name). The format is functional.

In brackets after ≈: the same amount, converted by molar mass.

Turning to `C=C(C)[C@@H]1CC[C@]2(C(=O)N[C@@H](C)C(=O)O)CC[C@]3(C)[C@H](CC[C@@H]4[C@@]5(C)CC[C@H](O)C(C)(C)[C@@H]5CC[C@]43C)[C@@H]12`, the EC50 in the data set with SK-MEL-2 was determined as 1.5 µg/mL (≈ 2.84 µM); in the data set on KB it was 4.6 µg/mL (≈ 8.72 µM). This compound came in with a S in data set [1] of 50 Dilution factor.
On to `C=C(C)[C@@H]1CC[C@]2(C(=O)N[C@@H](Cc3c[nH]c4ccccc34)C(=O)OC)CC[C@]3(C)[C@H](CC[C@@H]4[C@@]5(C)CC[C@H](O)C(C)(C)[C@@H]5CC[C@]43C)[C@@H]12`, for which the EC50 with SK-MEL-2 and with KB was over 20 µg/mL in each case.
In the case of `C=C(C)[C@@H]1CC[C@]2(C(=O)N3CCC[C@H]3C(=O)O)CC[C@]3(C)[C@H](CC[C@@H]4[C@@]5(C)CC[C@H](O)C(C)(C)[C@@H]5CC[C@]43C)[C@@H]12`, the EC50 in the data set on SK-MEL-2 was 13.1 µg/mL (≈ 23.7 µM); in the data set on KB it was over 20 µg/mL. This compound returned a S in data set [1] of 20 Dilution factor.
On to `C=C(C)[C@@H]1CC[C@]2(C(=O)N[C@@H](Cc3c[nH]c4ccccc34)C(=O)O)CC[C@]3(C)[C@H](CC[C@@H]4[C@@]5(C)CC[C@H](O)C(C)(C)[C@@H]5CC[C@]43C)[C@@H]12`, for which the EC50 was 8.6 µg/mL (≈ 13.4 µM) with SK-MEL-2 and over 20 µg/mL in the data set on KB. For the same compound, in data set [1], the S turned out to be 10 Dilution factor.
`C=C(C)[C@@H]1CC[C@]2(C(=O)N3CCC[C@H]3C(=O)OC)CC[C@]3(C)[C@H](CC[C@@H]4[C@@]5(C)CC[C@H](O)C(C)(C)[C@@H]5CC[C@]43C)[C@@H]12`: the EC50 with SK-MEL-2 and in the data set on KB was over 20 µg/mL each time.
`C=C(C)[C@@H]1CC[C@]2(C(=O)O)CC[C@]3(C)[C@H](CC[C@@H]4[C@@]5(C)CC[C@H](O)C(C)(C)[C@@H]5CC[C@]43C)[C@@H]12` [BETULINIC ACID]: the EC50 is 4.2 µg/mL (≈ 9.2 µM) with SK-MEL-2 and over 20 µg/mL in the data set with KB. The same compound showed a S in data set [1] of under 5 Dilution factor.
For `C=C(C)[C@@H]1CC[C@]2(C(=O)NCC(=O)OC)CC[C@]3(C)[C@H](CC[C@@H]4[C@@]5(C)CC[C@H](O)C(C)(C)[C@@H]5CC[C@]43C)[C@@H]12` the same measures were 10.2 µg/mL (≈ 19.3 µM), over 20 µg/mL and 50 Dilution factor.
For `C=C(C)[C@@H]1CC[C@]2(C(=O)N[C@@H](Cc3ccccc3)C(=O)OC)CC[C@]3(C)[C@H](CC[C@@H]4[C@@]5(C)CC[C@H](O)C(C)(C)[C@@H]5CC[C@]43C)[C@@H]12` the same measures were 9 µg/mL (≈ 14.6 µM), over 20 µg/mL and 5 Dilution factor.
For `C=C(C)[C@@H]1CC[C@]2(C(=O)NCC(=O)O)CC[C@]3(C)[C@H](CC[C@@H]4[C@@]5(C)CC[C@H](O)C(C)(C)[C@@H]5CC[C@]43C)[C@@H]12`, the EC50 is 4.2 µg/mL (≈ 8.17 µM) in the data set with SK-MEL-2 and over 20 µg/mL with KB. In data set [1], this compound came in with an S of 100 Dilution factor.
As for `C=C(C)[C@@H]1CC[C@]2(C(=O)N[C@H](C(=O)O)[C@@H](C)CC)CC[C@]3(C)[C@H](CC[C@@H]4[C@@]5(C)CC[C@H](O)C(C)(C)[C@@H]5CC[C@]43C)[C@@H]12`, the EC50 in the data set on SK-MEL-2 and with KB was over 20 µg/mL in each case.
As to `C=C(C)[C@@H]1CC[C@]2(C(=O)N[C@H](C(=O)O)C(C)C)CC[C@]3(C)[C@H](CC[C@@H]4[C@@]5(C)CC[C@H](O)C(C)(C)[C@@H]5CC[C@]43C)[C@@H]12`, the EC50 with SK-MEL-2 and in the data set with KB was 9 µg/mL (≈ 16.2 µM) in each case. This compound yielded a S in data set [1] of 20 Dilution factor.
In the case of `C=C(C)[C@@H]1CC[C@]2(C(=O)N[C@H](C(=O)OC)[C@@H](C)CC)CC[C@]3(C)[C@H](CC[C@@H]4[C@@]5(C)CC[C@H](O)C(C)(C)[C@@H]5CC[C@]43C)[C@@H]12`, the EC50 in the data set on SK-MEL-2 and in the data set with KB was over 20 µg/mL each time.
On to `C=C(C)[C@@H]1CC[C@]2(C(=O)N[C@@H](CCC(=O)OC)C(=O)OC)CC[C@]3(C)[C@H](CC[C@@H]4[C@@]5(C)CC[C@H](O)C(C)(C)[C@@H]5CC[C@]43C)[C@@H]12`, for which the EC50 in the data set on SK-MEL-2 was 15.3 µg/mL (≈ 24.9 µM); with KB it was over 20 µg/mL. In data set [1], this compound showed an S of 20 Dilution factor.
On to `C=C(C)[C@@H]1CC[C@]2(C(=O)N[C@@H](CCSC)C(=O)OC)CC[C@]3(C)[C@H](CC[C@@H]4[C@@]5(C)CC[C@H](O)C(C)(C)[C@@H]5CC[C@]43C)[C@@H]12`, for which the EC50 is 12.8 µg/mL (≈ 21.3 µM) in the data set with SK-MEL-2 and over 20 µg/mL with KB. The same compound registered a S in data set [1] of 5 Dilution factor.
For `C=C(C)[C@@H]1CC[C@]2(C(=O)N[C@@H](CC(C)C)C(=O)O)CC[C@]3(C)[C@H](CC[C@@H]4[C@@]5(C)CC[C@H](O)C(C)(C)[C@@H]5CC[C@]43C)[C@@H]12` the same measures were 9 µg/mL (≈ 15.8 µM), over 20 µg/mL and 10 Dilution factor.
Take `C=C(C)[C@@H]1CC[C@]2(C(=O)N[C@@H](Cc3ccc(O)cc3)C(=O)O)CC[C@]3(C)[C@H](CC[C@@H]4[C@@]5(C)CC[C@H](O)C(C)(C)[C@@H]5CC[C@]43C)[C@@H]12`: the EC50 in the data set with SK-MEL-2 and in the data set with KB was over 20 µg/mL each time.
Take `C=C(C)[C@@H]1CC[C@]2(C(=O)N[C@H](C(=O)OC)C(C)C)CC[C@]3(C)[C@H](CC[C@@H]4[C@@]5(C)CC[C@H](O)C(C)(C)[C@@H]5CC[C@]43C)[C@@H]12`: the EC50 is 2.1 µg/mL (≈ 3.69 µM) in the data set on SK-MEL-2 and over 20 µg/mL in the data set on KB. This compound returned a S in data set [1] of 5 Dilution factor.
For `C=C(C)[C@@H]1CC[C@]2(C(=O)N[C@@H](Cc3ccccc3)C(=O)O)CC[C@]3(C)[C@H](CC[C@@H]4[C@@]5(C)CC[C@H](O)C(C)(C)[C@@H]5CC[C@]43C)[C@@H]12`, the EC50 with SK-MEL-2 and in the data set with KB was over 20 µg/mL in each case.
Consider `C=C(C)[C@@H]1CC[C@]2(C(=O)N[C@@H](CC(C)C)C(=O)OC)CC[C@]3(C)[C@H](CC[C@@H]4[C@@]5(C)CC[C@H](O)C(C)(C)[C@@H]5CC[C@]43C)[C@@H]12`, for which the EC50 was 6.2 µg/mL (≈ 10.6 µM) in the data set on SK-MEL-2 and over 20 µg/mL in the data set on KB. Also, in data set [1], the S is given as 5 Dilution factor.
As to `C=C(C)[C@@H]1CC[C@]2(C(=O)N[C@@H](CC(=O)O)C(=O)O)CC[C@]3(C)[C@H](CC[C@@H]4[C@@]5(C)CC[C@H](O)C(C)(C)[C@@H]5CC[C@]43C)[C@@H]12`, the EC50 in the data set on SK-MEL-2 and in the data set on KB was over 20 µg/mL throughout.
Take `C=C(C)[C@@H]1CC[C@]2(C(=O)N[C@@H](Cc3ccc(O)cc3)C(=O)OC)CC[C@]3(C)[C@H](CC[C@@H]4[C@@]5(C)CC[C@H](O)C(C)(C)[C@@H]5CC[C@]43C)[C@@H]12`: the EC50 in the data set with SK-MEL-2 and with KB was over 20 µg/mL in each case.
`C=C(C)[C@@H]1CC[C@]2(C(=O)N[C@@H](C)C(=O)OC)CC[C@]3(C)[C@H](CC[C@@H]4[C@@]5(C)CC[C@H](O)C(C)(C)[C@@H]5CC[C@]43C)[C@@H]12`: the EC50 was 3.5 µg/mL (≈ 6.46 µM) in the data set on SK-MEL-2 and over 20 µg/mL in the data set with KB. The compound further showed a S in data set [1] of 30 Dilution factor.
Consider `C=C(C)[C@@H]1CC[C@]2(C(=O)N[C@@H](CCSC)C(=O)O)CC[C@]3(C)[C@H](CC[C@@H]4[C@@]5(C)CC[C@H](O)C(C)(C)[C@@H]5CC[C@]43C)[C@@H]12`, for which the figures for the EC50 in the data set on SK-MEL-2 and in the data set with KB were 9 µg/mL (≈ 15.3 µM) and over 20 µg/mL, respectively. This compound also displayed a S in data set [1] of 5 Dilution factor.
Regarding `C=C(C)[C@@H]1CC[C@]2(C(=O)N[C@@H](CCC(=O)O)C(=O)O)CC[C@]3(C)[C@H](CC[C@@H]4[C@@]5(C)CC[C@H](O)C(C)(C)[C@@H]5CC[C@]43C)[C@@H]12`, the EC50 in the data set with SK-MEL-2 and in the data set on KB was over 20 µg/mL each time.
Take `C=C(C)[C@@H]1CC[C@]2(C(=O)N[C@@H](CC(=O)OC)C(=O)OC)CC[C@]3(C)[C@H](CC[C@@H]4[C@@]5(C)CC[C@H](O)C(C)(C)[C@@H]5CC[C@]43C)[C@@H]12`: the EC50 in the data set on SK-MEL-2 and with KB was over 20 µg/mL each time.
